Reference: patent US6380164B1, “Method for treating cytokine mediated hepatic injury” (University of Kentucky Research Foundation, priority 1999, dated 2002)

Tested on: Male BALB/c HSD mice
Experiment: Survival of mice rendered hepatotoxic by LPS/GAL treatment (hepatic failure / septic shock model)
Type: in vivo
Conditions: for survival time compared to mice receiving LPS/GAL only: mice made septic by LPS/GAL treatment, 4 mg/kg intraperitoneal x5, result in words; for SURVIVAL 15 Hours (number of surviving mice) / SURVIVAL 15 Hours (percent of mice) / SURVIVAL 20 Hours (number of surviving mice) / SURVIVAL 20 Hours (percent of mice) / SURVIVAL 40 Hours (number of surviving mice) / SURVIVAL 40 Hours (percent of mice) / SURVIVAL 65 Hours (number of surviving mice) / SURVIVAL 65 Hours (percent of mice): n=15 mice, 4 mg/kg intraperitoneal at 0 h, 2 h, 4 h, 6 h and 7.5 h, LPS/GAL at 6.5 h; for SURVIVAL 15 Hours (number of surviving mice) / SURVIVAL 15 Hours (percent of mice): 15 h after the last injection; for SURVIVAL 20 Hours (number of surviving mice) / SURVIVAL 20 Hours (percent of mice): 20 h after the last injection; for SURVIVAL 40 Hours (number of surviving mice) / SURVIVAL 40 Hours (percent of mice): 40 h after the last injection; for SURVIVAL 65 Hours (number of surviving mice) / SURVIVAL 65 Hours (percent of mice): 65 h after the last injection
Method: Hepatic failure was induced in mice by intraperitoneal injections of a mixture of lipopolysaccharide (LPS) ([…]) and D-galactosamine (GAL) (700 mg/kg) to form LPS/GAL. LPS is a bacterial endotoxin that is a major stimulus for production of many cytokines, particularly tumor necrosis factor (TNF), thought to be involved in liver injury. GAL is an amino sugar that sensitizes hepatocytes by depleting the base uridine and thus preventing hepatic transcription, and sensitizes animals to normally innocuous amounts of endotoxin or TNF. The LPS/GAL treatment induces fulminate hepatic and multiorgan failure, and serves as a model for septic shock. The major effects of LPS/GAL are elicited by the inflammatory cytokine TNF-α. Hepatocytes sensitized to TNF-α then undergo apoptosis or programmed cell death in response to inflammatory processes.
Mice were treated with deltorphin and were subsequently rendered hepatotoxic by LPS/GAL treatment. An emulsion of deltorphin I SEQ ID NO:1 (Tyr-D-Ala-Phe-Asp-Val-Val-Gly-NH2) was prepared at a concentration of 80 μg/200 μl in sterile phosphate buffered saline (PBS). An emulsion of DADLE (Tyr-D-Ala-Gly-Phe-D-Leu-enkephalin) was also prepared at a concentration of 80 μg/200 μl in sterile PBS. Male BALB/c HSD mice were treated by intraperitoneal injections according to the following protocol. Control mice (n=7) received only LPS/GAL (280 μl) at 6.5 h. Deltorphin I SEQ ID NO:1 treated mice (n=15) received injections of 4 mg/kg deltorphin I SEQ ID NO:1 at 0 h, 2 h, 4 h, 6 h and 7.5 h and received an LPS/GAL injection at 6.5 h. DADLE treated mice (n 15) received 4 mg/kg DADLE at 0 h, 2 h, 4 h, 6 h and 7.5 h and received an LPS/GAL injection at 6.5 h.
Both control and treated mice were monitored at 15 h, 20 h, 40 h and 65 h after the last injection.

Compound	survival time compared to mice receiving LPS/GAL only	SURVIVAL 15 Hours (number of surviving mice)	SURVIVAL 15 Hours (percent of mice) [%]	SURVIVAL 20 Hours (number of surviving mice)	SURVIVAL 20 Hours (percent of mice) [%]	SURVIVAL 40 Hours (number of surviving mice)	SURVIVAL 40 Hours (percent of mice) [%]	SURVIVAL 65 Hours (number of surviving mice)	SURVIVAL 65 Hours (percent of mice) [%]
CC(C)C[C@@H](NC(=O)[C@H](Cc1ccccc1)NC(=O)CNC(=O)[C@@H](C)NC(=O)[C@@H](N)Cc1ccc(O)cc1)C(=O)O [DADLE, Tyr-D-Ala-Gly-Phe-D-Leu-enkephalin]	not as striking at any time point	3	20	3	20	3	20	3	20
Tyr-D-Ala-Phe-Asp-Val-Val-Gly-NH2 [deltorphin I SEQ ID NO:1]	markedly increased survival time	12	80	11	73	11	73	11	73
